Source: US11920125B2, “Methods and agricultural compositions for preventing or controlling plant diseases” (Tenfold Technologies, LLC, priority 2017, dated 2024)

Experiments:
R. solani = assay: Pot assay, microbial drench treatments on Ozark soybean seedlings in pots infested with R. solani; assay type: in vivo; details: chemical control at 0.06 g/lb of soybean seeds
Description: In pot assays, WB or its dilutions were applied as a seed coating or as a a simulated in-furrow application in pots containing soil inoculated with the pathogen. Measurements of the percent of emergence, plant growth stage, and disease rating were used to assess biocontrol efficacy. Whole broth (WB) or WB dilutions were applied either as a simulated in-furrow treatment or a seed treatment applied to soybean seed. For simulated in-furrow application, 1 ml of biocontrol treatment or negative and positive controls was pipetted over the seed placed in 0.5 cm deep depressions made in peat-lite mix potting medium inoculated with the pathogen and prior to covering with the potting medium. Seed treatments were applied by coating soybean seed with the biocontrol and control treatments prior to planting into an inoculated potting medium. The negative control was reverse osmosis-purified (RO) water applied to seed in inoculated pots. The positive controls were Satori® (azoxystrobin) and Subtilex® (Bacillus subtilis strain MBI 600) applied at the labelled rates. In addition, a mock-inoculated treatment without pathogen inoculation was included in each test. Inoculation was done by thoroughly mixing 1 L of a slurry, made by blending two fully Rhizoctonia solani-colonized potato dextrose cultures in 200 ml RO water, with 4 L peat-lite mix (e.g., Sunshine LC1 potting mix) using a cement mixer. Experimental units were five seeds per pot and the treatments were arranged in a completely random design with four replicates. The tests were conducted on light carts illuminated with LED lamps (16 hour day/8 hour night) for 7-10 days at 26-28° C. The pots were irrigated as needed with RO water. Measurements of the percent emergence, plant growth stage (Munger, et al., 2008), and disease severity rating (0, no disease, to 5, dead plant) were collected from each plant at the end of each test, and the means of the experimental units were analyzed using JMP version 11 (SAS, Cary, NC).
In a separate pot assay, treatments were applied directly as a drench.

Rhizoctonia = Rhizoctonia control field trial, soybean seed treatment, Fisher, Indiana; details: isolates (GB6-M) 20 μl WB/Seed; Fludioxonil 0.02 mg/Seed
Description: For all treatments, the target concentration is 20 μl water/seed, which corresponds to 60 ml/460 g seeds. Sixty (60) ml liquid was added to every 460 g soybean seeds for a total of six times. Each time, 10 ml of liquid was added to the 460 g seeds and mixed for 15 seconds. Coated seeds were dried for 5-10 minutes under ventilation between the additions. Final coated seeds were dried overnight in a biocontainment hood.

Pythium irregulare = assay: Pot assay, bacterial isolates with or without fungicide Satori for control of Pythium irregulare on soybean; assay type: in vivo
Description: In order to test the performance of bacterial isolates, with or without the presence of the fungicide Satori® (active ingredient is azoxystrobin), samples were applied as simulated in-furrow by pipetting in 1 ml over each seed after the seeds were placed in a 1 cm deep depression. The combination was prepared by combining each bacterial whole broth (MS1479, MS2379, MS2414, or MS2820) (which was grown in GB6-M8) with an equal volume (1:1) of Satori®. The agar slurry inoculation method was used after blending two agar cultures of P. irregulare in 200 ml RO water and then mixed with 4 L of peat-lite mix in a cement mixer. Five soybean seeds (genotype WS2620) were sown in each pot with 1 ml treatment over each seed (in-furrow simulation). Then the pots were incubated at 16° C. for 1 week and then 23° C. for another week before evaluation. The disease severity scale: 1=80-100%, 2=60-79%, 3=40-59%, 4=20-39%, 5=1-19%, and 6=0% damaged roots. (Table 16).

Structure (SMILES)	Disease Rating (R. solani; 0 = no disease to 5 = plant dead, 7 days)	# Emerged Plants (R. solani; 7 days after sowing, of four seeds per pot)	Plant Growth Stage (R. solani; scale 1-4, 7 days)	Stand (No of plants per acre) at 11 DAP (Rhizoctonia)	Stand (No of plants per acre) at 16 DAP (Rhizoctonia)	Stand (No of plants per acre) at 49 DAP (Rhizoctonia)	Total # Diseased per plot (187.5 ft^2 per plot area) (Rhizoctonia)	Vigor Rating (1-5: 1 = worst, 5 = best) (Rhizoctonia)	Plant development (Pythium irregulare; five soybean seeds per pot, 1 ml treatment over each seed)	Plant emergence (Pythium irregulare; five soybean seeds per pot, 1 ml treatment over each seed, 16° C. 1 week then 23° C. 1 week)	Disease severity (Pythium irregulare; scale 1=80-100%, 2=60-79%, 3=40-59%, 4=20-39%, 5=1-19%, 6=0% damaged roots (higher = healthier))
N#Cc1c[nH]cc1-c1cccc2c1OC(F)(F)O2 [Fludioxonil]	3.0^F	2.0^B	2.2^B	2614 plants per acre	20038 plants per acre	16939 plants per acre	7.3	1.8	–	–	–
COCC(=O)N(c1c(C)cccc1C)C(C)C(=O)OC (centres unmarked) [Metalaxyl]	–	–	–	–	–	–	–	–	12.55	5	4.35
